The record followed here is publication PMC6318325, “The conformational changes coupling ATP hydrolysis and translocation in a bacterial DnaB helicase” (Nature Communications, 2019).

The target of series [1] is T1, HpDnaB (DnaB) (Helicobacter pylori, UniProt O25916).
T1 construct: full length (488 residues), no tag stated (heparin and anion exchange purification); pACYC-duet1, E. coli BL21 Star (DE3); 13C-15N labelled for NMR; hexameric assembly, dodecamer named in anisotropy assay; nucleotide site at interface of two monomers
T1 sequence (O25916 1-488): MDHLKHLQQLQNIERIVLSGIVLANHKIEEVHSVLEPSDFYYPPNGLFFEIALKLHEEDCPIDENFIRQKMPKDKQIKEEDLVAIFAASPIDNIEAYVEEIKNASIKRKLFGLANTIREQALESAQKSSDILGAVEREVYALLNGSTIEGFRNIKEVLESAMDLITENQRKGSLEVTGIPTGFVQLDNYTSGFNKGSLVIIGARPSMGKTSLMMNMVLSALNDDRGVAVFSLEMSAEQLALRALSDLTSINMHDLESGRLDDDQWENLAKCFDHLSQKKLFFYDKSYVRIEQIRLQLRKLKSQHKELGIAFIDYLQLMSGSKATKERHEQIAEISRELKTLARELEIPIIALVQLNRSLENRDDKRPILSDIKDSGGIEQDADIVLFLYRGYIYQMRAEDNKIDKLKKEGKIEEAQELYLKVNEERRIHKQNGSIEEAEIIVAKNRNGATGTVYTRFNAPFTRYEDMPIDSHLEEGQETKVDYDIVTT
The experiment in a line: solid-state […] CP and […] MAS NMR of sedimented complex. The conditions noted are these: no DNA, NMR at 278 K, nucleotide-binding domain.

In series [2] the target is T1, HpDnaB (DnaB). The experiment in a line: […] solid-state NMR, ATP turned over to ADP during sample preparation. Format: biochemical. The conditions noted are these: 5 mM MgCl2, 5 mM ATP, pH 7.5, 130 mM NaCl, 4 °C, no DNA.
For series [3], the target named is T2, HpDnaB replicative helicase (Helicobacter pylori, UniProt O25916 1-488).
T2 sequence: T1 sequence (O25916 1-488)
The experiment in a line: fluorescence anisotropy; 0.5 mM ADP:AlF4-, 5 mM MgCl2; Hill fit h 1.160; Anisotropy: 20 mM Hepes pH 7.5, 5 mM MgCl2, 50 mM potassium acetate, 5% glycerol, 0.2 mg/ml BSA, 0.5 mM nucleotide, 1 nM DNA, 0-8 uM DnaB (dodecamer), temperature not stated; NMR: protein buffer 2.5 mM sodium phosphate pH 7.5, 130 mM NaCl, 278 K. The following applies: protein: recombinant; chain copies: 12; label: 5'-FAM; single strand.

Series [4] deals with T2, HpDnaB replicative helicase. The experiment in a line: fluorescence anisotropy; 0.5 mM AMP-PCP, 5 mM MgCl2; Hill fit; Supplementary Table 4 fit instead prints 47.43 +/- 2.648, h 0.7349 (column order inferred); Anisotropy: 20 mM Hepes pH 7.5, 5 mM MgCl2, 50 mM potassium acetate, 5% glycerol, 0.2 mg/ml BSA, 0.5 mM nucleotide, 1 nM DNA, 0-8 uM DnaB (dodecamer), temperature not stated; NMR: protein buffer 2.5 mM sodium phosphate pH 7.5, 130 mM NaCl, 278 K. The following applies: protein: recombinant; chain copies: 12; label: 5'-FAM; single strand.

For series [5] the target is unchanged. The series is described as follows: fluorescence anisotropy; 0.5 mM ATP, 5 mM MgCl2; Hill fit h 0.6509; Anisotropy: 20 mM Hepes pH 7.5, 5 mM MgCl2, 50 mM potassium acetate, 5% glycerol, 0.2 mg/ml BSA, 0.5 mM nucleotide, 1 nM DNA, 0-8 uM DnaB (dodecamer), temperature not stated; NMR: protein buffer 2.5 mM sodium phosphate pH 7.5, 130 mM NaCl, 278 K. The following applies: protein: recombinant; chain copies: 12; label: 5'-FAM; single strand.

For `Nc1ncnc2c1ncn2[C@@H]1O[C@H](COP(=O)(O)OP(=O)(O)O)[C@@H](O)[C@H]1O` [ADP], the “solid-state 31P CP and 13C MAS NMR of sedimented complex” value in series [1] (5 mM MgCl2, 5 mM ADP, pH 7.5, 130 mM NaCl) was “The nucleotides are thus indeed bound to the protein”.

For `Nc1ncnc2c1ncn2[C@@H]1O[C@H](COP(=O)(O)OP(=O)(O)CP(=O)(O)O)[C@@H](O)[C@H]1O` [AMP-PCP], in series [1] (5 mM MgCl2, pH 7.5, 130 mM NaCl, 15 mM nucleotide), the “solid-state 31P CP and 13C MAS NMR of sedimented complex” value is given as “The nucleotides are thus indeed bound to the protein”. `Nc1ncnc2c1ncn2[C@@H]1O[C@H](COP(=O)(O)OP(=O)(O)OP(=O)(O)O)[C@@H](O)[C@H]1O` [ATP]: in series [2], the “31P solid-state NMR, ATP turned over to ADP during sample preparation” value is given as “Addition of ATP to the apo form yields the ADP spectrum, implying that ATP is hydrolyzed”. On to TTTTTTTTTTTTTTTTTTTT (ssDNA) [5'-FAM-(dT)20], for which the Kd stood at 0.83 ± 0.03 nM in series [3], 58 ± 14 nM in series [4] and 14 ± 3 nM in series [5].
